Converted amounts (≈) assume the structure as drawn. One block for each compound: values may come before it.
What was measured:
CCRF-CEM = assay: IC50 in whole cell human leukemia cell lines, CCRF-CEM; type: cell-based; conditions: read-out: IC₅₀
Procedure: The IC₅₀ in whole cell human leukemia cell lines, CCRF-CEM, of N-[5-(2-{2-amino-4-hydroxy-5,6,7,8-tetrahydropyrido[2,3-d]pyrimidin-6-yl}ethyl)thien-2-ylcarbonyl]-L-glutamic acid is 0.0015 ug/mL. The IC₅₀ of N-[5-(2-{2-amino-4-hydroxy-5,6,7,8-tetrahydropyrido[2,3-d]pyrimidin-6-yl}ethyl)fur-2-ylcarbonyl]-L-glutamic acid is 0.010 ug/mL. The IC₅₀ of N-[4-(2-{2-amino-4-hydroxy-5,6,7,8-tetrahydropyrido[2,3-d]pyrimidin-6-yl}-ethyl)thien-2-ylcarbonyl]-L-glutamic acid is 0.0756 ug/mL.
The IC₅₀ in whole cell human leukemia cell lines, CCRF-CEM, of other compounds of this invention are as follows: […]

[1] = test system: 6C3HED lymphosarcoma tumors; assay: In vivo evaluation against 6C3HED lymphosarcoma tumors in mice; conditions: IP, daily administration
CX-1 Colon Xenography = assay: In vivo evaluation against CX-1 Colon Xenography in mice; conditions: IP, daily administration, days 1, 4, 7, 10
B-16 Melanoma tumors = assay: In vivo evaluation against B-16 Melanoma tumors in mice; conditions: IP, daily administration, days 1, 7
LX-1 Lung Xenography = assay: In vivo evaluation against LX-1 Lung Xenography in mice; conditions: IP, daily administration, days 1, 4, 7, 10
[2] = test system: C3H Mammary Adenocarcinoma tumors; assay: In vivo evaluation against C3H Mammary Adenocarcinoma tumors in mice; conditions: IP, daily administration, days 1, 4, 7, 10
MX-1 Mammary Xenography = assay: In vivo evaluation against MX-1 Mammary Xenography in mice; conditions: IP, daily administration, days 1, 4, 7, 10
[3] = test system: CA-755 Adenocarcinoma tumors; assay: In vivo evaluation against CA-755 Adenocarcinoma tumors in mice; conditions: IP, daily administration, days 1, 4, 7, 10

IC50 (CCRF-CEM): 0.023 µg/mL (≈ 0.0582 µM)
Structure (SMILES): Nc1nc(O)c2c(n1)NCC(CCCCC(=O)N[C@@H](CCC(=O)O)C(=O)O)C2 (stereo partly drawn) [-(CH₂)₂-, N-[5-(2-amino-4-hydroxy-5,6,7,8-tetrahydropyrido[2,3-d]pyrimidin-6-yl)pentanoyl]-L-glutamic acid]

IC50 (CCRF-CEM): 0.0075 µg/mL (≈ 0.0183 µM)
Structure (SMILES): Nc1nc(O)c2c(n1)NCC(CCCCCC(=O)N[C@@H](CCC(=O)O)C(=O)O)C2 (stereo partly drawn) [-(CH₂)₃-, N-[6-(2-Amino-4-hydroxy-5,6,7,8-tetrahydropyrido[2,3-d]pyrimidin-6-yl)hexanoyl]-L-glutamic Acid]

IC50 (CCRF-CEM): 0.034 µg/mL (≈ 0.0803 µM)
Structure (SMILES): Nc1nc(O)c2c(n1)NCC(CCCCCCC(=O)N[C@@H](CCC(=O)O)C(=O)O)C2 (stereo partly drawn) [-(CH₂)₄- CH₂-CH₂, N-[7-(2-Amino-4-hydroxy-5,6,7,8-tetrahydropyrido[2,3-d]pyrimidin-6-yl)heptanoyl]-L-glutamic acid]

The next lines start with the compound.

Structure (SMILES): Nc1nc(O)c2c(n1)NCC(CCCC(=O)N[C@@H](CCC(=O)O)C(=O)O)C2 (stereo partly drawn) [N-[4-(2-amino-4-hydroxy-5,6,7,8-tetrahydropyrido[2,3-d]pyrimidin-6-yl)butyryl]-L-glutamic acid]
% Inhibition ([1]; 3.12 mg/kg, eight days): 0% | Toxicity ([1]; 3.12 mg/kg, eight days): 0/10 | % Inhibition ([1]; 6.25 mg/kg, eight days): 11% | Toxicity ([1]; 6.25 mg/kg, eight days): 0/10 | % Inhibition ([1]; 12.5 mg/kg, eight days): 62% | Toxicity ([1]; 12.5 mg/kg, eight days): 0/10 | % Inhibition ([1]; 25 mg/kg, eight days): 88% | Toxicity ([1]; 25 mg/kg, eight days): 0/10 | % Inhibition ([1]; 50 mg/kg, eight days): 98% | Toxicity ([1]; 50 mg/kg, eight days): 1/10

Structure (SMILES): Nc1nc(O)c2c(n1)NCC(CCc1csc(C(=O)N[C@@H](CCC(=O)O)C(=O)O)c1)C2 (stereo partly drawn) [N-[4-(2-{2-amino-4-hydroxy-5,6,7,8-tetrahydropyrido[2,3-d]pyrimidin-6-yl}ethyl)thien-2-ylcarbonyl]-L-glutamic acid]
IC50 (CCRF-CEM): 0.0756 µg/mL (≈ 0.168 µM)

Structure (SMILES): Nc1nc(O)c2c(n1)NCC(CCc1ccc(C(=O)N[C@@H](CCC(=O)O)C(=O)O)s1)C2 (stereo partly drawn) [N-[5-(2-{2-Amino-4-hydroxy-5,6,7,8-tetrahydropyrido[2,3-d]pyrimidin-6-yl}ethyl)thien-2-ylcarbonyl]-L-glutamic Acid]
% Inhibition (CX-1 Colon Xenography; 5 mg/kg): 90% | Toxicity (CX-1 Colon Xenography; 5 mg/kg): 3/10 | % Inhibition (CX-1 Colon Xenography; 10 mg/kg): 94% | Toxicity (CX-1 Colon Xenography; 10 mg/kg): 6/10 | % Inhibition (CX-1 Colon Xenography; 20 mg/kg): 91% | Toxicity (CX-1 Colon Xenography; 20 mg/kg): 9/10 | % Inhibition (CX-1 Colon Xenography; 40 mg/kg): toxic | Toxicity (CX-1 Colon Xenography; 40 mg/kg): 10/10 | % Inhibition (B-16 Melanoma tumors; 50 mg/kg): 38% | Toxicity (B-16 Melanoma tumors; 50 mg/kg): 0/9 | % Inhibition (B-16 Melanoma tumors; 100 mg/kg): 73% | Toxicity (B-16 Melanoma tumors; 100 mg/kg): 3/10 | % Inhibition (B-16 Melanoma tumors; 200 mg/kg): 93% | Toxicity (B-16 Melanoma tumors; 200 mg/kg): 4/10 | % Inhibition (LX-1 Lung Xenography; 10 mg/kg): 98% | Toxicity (LX-1 Lung Xenography; 10 mg/kg): 0/8 | % Inhibition (LX-1 Lung Xenography; 20 mg/kg): 100% | Toxicity (LX-1 Lung Xenography; 20 mg/kg): 4/8 | % Inhibition (LX-1 Lung Xenography; 40 mg/kg): toxic | Toxicity (LX-1 Lung Xenography; 40 mg/kg): 8/8 | % Inhibition ([2]; 2.5 mg/kg): 71% | Toxicity ([2]; 2.5 mg/kg): 0/10 | % Inhibition ([2]; 5 mg/kg): 90% | Toxicity ([2]; 5 mg/kg): 1/10 | % Inhibition ([2]; 10 mg/kg): 94% | Toxicity ([2]; 10 mg/kg): 0/10 | % Inhibition ([2]; 20 mg/kg): 100% | Toxicity ([2]; 20 mg/kg): 0/10 | % Inhibition ([2]; 40 mg/kg): 100% | Toxicity ([2]; 40 mg/kg): 0/10 | % Inhibition ([1]; 0.78 mg/kg, 10 days): 93% | Toxicity ([1]; 0.78 mg/kg, 10 days): 0/10 | % Inhibition ([1]; 1.56 mg/kg, 10 days): 100% | Toxicity ([1]; 1.56 mg/kg, 10 days): 0/10 | % Inhibition ([1]; 3.12 mg/kg, 10 days): 100% | Toxicity ([1]; 3.12 mg/kg, 10 days): 6/10 | % Inhibition ([1]; 6.25 mg/kg, 10 days): toxic | Toxicity ([1]; 6.25 mg/kg, 10 days): 10/10 | % Inhibition (MX-1 Mammary Xenography; 5 mg/kg): 84% | Toxicity (MX-1 Mammary Xenography; 5 mg/kg): 3/10 | % Inhibition (MX-1 Mammary Xenography; 10 mg/kg): 96% | Toxicity (MX-1 Mammary Xenography; 10 mg/kg): 5/10 | % Inhibition (MX-1 Mammary Xenography; 20 mg/kg): toxic | Toxicity (MX-1 Mammary Xenography; 20 mg/kg): 9/9 | % Inhibition (MX-1 Mammary Xenography; 40 mg/kg): toxic | Toxicity (MX-1 Mammary Xenography; 40 mg/kg): 10/10 | % Inhibition ([3]; 20 mg/kg): 78% | Toxicity ([3]; 20 mg/kg): 0/10 | % Inhibition ([3]; 40 mg/kg): 83% | Toxicity ([3]; 40 mg/kg): 0/10 | IC50 (CCRF-CEM): 0.0015 µg/mL (≈ 0.00334 µM)

Structure (SMILES): Nc1nc(O)c2c(n1)NCC(CCc1ccc(C(=O)N[C@@H](CCC(=O)O)C(=O)O)o1)C2 (stereo partly drawn) [N-[5-(2-{2-amino-4-hydroxy-5,6,7,8-tetrahydropyrido[2,3-d]pyrimidin-6-yl}ethyl)fur-2-ylcarbonyl]-L-glutamic acid]
% Inhibition ([1]; 0.625 mg/kg, days 1, 4, 7): 1% | Toxicity ([1]; 0.625 mg/kg, days 1, 4, 7): 0/10 | % Inhibition ([1]; 1.25 mg/kg, days 1, 4, 7): 29% | Toxicity ([1]; 1.25 mg/kg, days 1, 4, 7): 0/10 | % Inhibition ([1]; 2.5 mg/kg, days 1, 4, 7): 98% | Toxicity ([1]; 2.5 mg/kg, days 1, 4, 7): 0/10 | % Inhibition ([1]; 5 mg/kg, days 1, 4, 7): 97% | Toxicity ([1]; 5 mg/kg, days 1, 4, 7): 0/10 | % Inhibition ([1]; 10 mg/kg, days 1, 4, 7): 100% | Toxicity ([1]; 10 mg/kg, days 1, 4, 7): 0/10 | % Inhibition ([1]; 20 mg/kg, days 1, 4, 7): 100% | Toxicity ([1]; 20 mg/kg, days 1, 4, 7): 0/10 | % Inhibition ([1]; 25 mg/kg, eight days): 59% | Toxicity ([1]; 25 mg/kg, eight days): 0/10 | % Inhibition ([1]; 50 mg/kg, eight days): 69% | Toxicity ([1]; 50 mg/kg, eight days): 0/10 | % Inhibition ([1]; 100 mg/kg, eight days): 89% | Toxicity ([1]; 100 mg/kg, eight days): 0/10 | IC50 (CCRF-CEM): 0.01 µg/mL (≈ 0.0231 µM)

Structure (SMILES): Nc1nc(O)c2c(n1)NCC(CCC1CCC(C(=O)N[C@@H](CCC(=O)O)C(=O)O)CC1)C2 (stereo partly drawn) [N-{4-[2-(2-amino-4-hydroxy-5,6,7,8-tetrahydropyrido[2,3-d]pyrimidin-6-yl)ethyl]cyclohexylcarbonyl}-L-glutamic acid]
% Inhibition ([1]; 12.5 mg/kg, eight days): 18% | Toxicity ([1]; 12.5 mg/kg, eight days): 0/10 | % Inhibition ([1]; 25 mg/kg, eight days): 4% | Toxicity ([1]; 25 mg/kg, eight days): 0/10 | % Inhibition ([1]; 50 mg/kg, eight days): 5% | Toxicity ([1]; 50 mg/kg, eight days): 0/10 | % Inhibition ([1]; 100 mg/kg, eight days): 22% | Toxicity ([1]; 100 mg/kg, eight days): 0/9 | IC50 (CCRF-CEM): 0.007 µg/mL (≈ 0.0156 µM)
